pEC50: −log10 of the molar value.
System: Bmi-1 protein
Experiment: Sandwich ELISA Assay (Bmi-1 protein level in HT-1080 cells after compound treatment)
Type: cell-based
Conditions: Table 1, Bmi-1 sandwich ELISA, read-out: ELISA EC50 value for Bmi-1 protein
Protocol: Cell Seeding and Compound Treatment (Day 1):
HT-1080 cells were seeded at 8000 cells/well (50 μL) in 96-well tissue culture plates. After the cells became adherent (3-4 hours), 2× diluted stocks of test compounds in 50 μL DMEM containing 1% DMSO (final DMSO concentration was 0.5%) were added and the plates were incubated at 37° C. under 5% CO2 for 40-48 hours.
ELISA Plate First Antibody Preparation (Day 2):
The First Antibody (Millipore Mouse, monoclonal to mouse Bmi-1, clone F6, catalog #05-637) diluted to […] in PBS was added (100 μL) to each well of a Nunc MaxiSorp 96-well ELISA plate. The plate was covered with a plate seal and allowed to stand overnight.
Cell Lysate Preparation (Day 3):
Fresh Lysis buffer (1×) was prepared on the day of the assay as follows: 1 mM EDTA, 150 mM NaCl, 0.5% Triton-X 100, 10 mM NaF, 20 mM B-Glycerophosphate, 1 mM DTT (in PBS, pH 7.2-7.4) and HALT protease inhibitor cocktail (lx) (Pierce #78410).
A standard curve was prepared at the following Bmi-1 concentrations: 8000, 4000, 2000, 1000, 500, 250, 125 and 0 pg/mL. The Bmi-1 Recombinant Protein Standard (Novus Biologicals PCGF4 Recombinant Protein (P01), catalog # H00000648-P01) used to prepare the standard curve was stored at −80° C. On first thaw, the Recombinant Protein Standard was diluted to 10 μg/L in Blocking Buffer (1% BSA in PBS; BSA: Fisher Scientific Catalog #1600-100). Aliquots were taken and refrozen at −80° C. The aliquots may be kept at 4° C. and reused after first thaw, but only within 1-2 weeks. The Recombinant Protein Standard contains a GST-fusion tag that appears at approximately 70 Kda on Western Blot.
The prepared ELISA plate was washed 3× with Wash Buffer (0.05% Tween-20 in PBS). The final wash was removed from the plate and the plate was blotted dry. Blocking Buffer (300 μL) (1% BSA in PBS) was added to each well. The plate was covered with a plate seal and incubated at room temperature for 1 hour. The blocked plate was washed 3× with Wash Buffer, then the final wash was removed and the plate was blotted dry. The previously prepared samples and standards were added ([…]) and the plate was covered with a plate seal and incubated at 4° C. overnight.
The prepared ELISA plate was removed from incubation and allowed to stand at room temperature for 30 minutes, then washed and blotted dry. The Second Antibody (Cell Signaling Rabbit anti-Bmi-1, Cat #2830) diluted to 1:600 in Blocking Buffer was added (100 μL) to each well, except as needed for background control wells. The plate was covered with a plate seal and incubated for 1.5 hrs at room temperature.
The ELISA plate was washed and blotted dry as previously described. The Third Antibody (Cell Signaling HRP conjugated anti-rabbit IgG (CellSignaling, Cat #:7074) diluted to 1:300 in Blocking Buffer was added (100 μL) to each well, except as needed for background control wells. The plate was incubated for 1 hr at room temperature.
The plate was washed and blotted dry, then a previously prepared TMB substrate (TMB substrate kit, Pierce catalog #34021) (prepared by mixing kit reagents 1:1) (100 μL) was added per well. The plate was incubated for 20-30 minutes at room temperature in the dark, then Stop Solution (2 M sulfuric acid in water) (50 μL) was added per well. The plates were read at OD450 (experimental) and OD570 (reference).

| Compound | pEC50 |
| --- | --- |
| FC(F)(F)c1ccc(Nc2cncc(-c3c(C(F)(F)F)nc4ccccn34)n2)cn1 [Cpd 70, 6-[2-(trifluoromethyl)imidazo[1,2-a]pyridin-3-yl]-N-[6-(trifluoromethyl)pyridin-3-yl]pyrazin-2-amine] | 7.00 to 8.00 |
| COc1cc(Nc2ccc(OC(F)F)cc2)nc(-c2c(C(F)(F)F)nc3ccccn23)c1 [Cpd 125, N-[4-(difluoromethoxy)phenyl]-4-methoxy-6-[2-(trifluoromethyl)imidazo[1,2-a]pyridin-3-yl]pyridin-2-amine] | 5.52 to 7.00 |
| Cc1nc2ccccc2n1-c1cc(C#N)cc(Nc2ccc(OC(F)F)cc2)n1 [Cpd 135, 2-{[4-(difluoromethoxy)phenyl]amino}-6-(2-methyl-1H-benzimidazol-1-yl)pyridine-4-carbonitrile] | 7.00 to 8.00 |
| Cc1nc2ccccc2n1-c1cc(C#N)cc(Nc2ccc(OC(F)(F)F)cc2)n1 [Cpd 136, 2-(2-methyl-1H-benzimidazol-1-yl)-6-{[4-(trifluoromethoxy)phenyl]amino}pyridine-4-carbonitrile] | 7.00 to 8.00 |
| COc1ncc(Nc2cncc(-c3c(C(F)(F)F)nc4ccccn34)n2)cn1 [Cpd 201, 2-methoxy-N-{6-[2-(trifluoromethyl)imidazo[1,2-a]pyridin-3-yl]pyrazin-2-yl}pyrimidin-5-amine] | 8.00 to 9.00 |
| Fc1cc(Nc2cncc(-c3c(C(F)(F)F)nc4ccccn34)n2)ccc1C(F)(F)F [Cpd 208, N-[3-fluoro-4-(trifluoromethyl)phenyl]-6-[2-(trifluoromethyl)imidazo[1,2-a]pyridin-3-yl]pyrazin-2-amine] | 7.00 to 8.00 |
| FC(F)(F)Oc1ccc(Nc2cncc(-c3c(C(F)(F)F)nc4n3CCCC4)n2)cc1 [Cpd 234, N-[4-(trifluoromethoxy)phenyl]-6-[2-(trifluoromethyl)-5,6,7,8-tetrahydroimidazo[1,2-a]pyridin-3-yl]pyrazin-2-amine] | 7.00 to 8.00 |
| N#Cc1cc(Nc2ccc(OC(F)F)cc2)nc(-c2c(C(F)(F)F)nc3n2CCCC3)c1 [Cpd 237, 2-{[4-(difluoromethoxy)phenyl]amino}-6-[2-(trifluoromethyl)-5,6,7,8-tetrahydroimidazo[1,2-a]pyridin-3-yl]pyridine-4-carbonitrile] | 8.00 to 9.00 |
| CC(N)c1ccc(Nc2cc(C#N)cc(-c3c(C(F)(F)F)nc4ccccn34)n2)cc1 (stereo not shown) [Cpd 257, 2-(4-(1-aminoethyl)phenylamino)-6-(2-(trifluoromethyl)imidazo[1,2-a]pyridin-3-yl)isonicotinonitrile] | 5.52 to 7.00 |
| Cc1cnc(C)n1-c1cncc(Nc2ccc(C(F)(F)F)cc2)n1 [Cpd 355, 6-(2,5-dimethyl-1H-imidazol-1-yl)-N-[4-(trifluoromethyl)phenyl]pyrazin-2-amine] | 5.52 to 7.00 |

Now from value to molecule:

| pEC50 | Compound |
| --- | --- |
| 8.00 to 9.00 | FC(F)(F)c1ccc(Nc2cccc(-c3c(C(F)(F)F)nc4ccccn34)n2)cn1 [Cpd 71, 6-[2-(trifluoromethyl)imidazo[1,2-a]pyridin-3-yl]-N-[6-(trifluoromethyl)pyridin-3-yl]pyridin-2-amine] |
| 5.52 to 7.00 | FC(F)(F)Oc1ccc(Nc2cncc(-c3c(C(F)(F)F)nc4ncccn34)n2)cc1 [Cpd 100, N-[4-(trifluoromethoxy)phenyl]-6-[2-(trifluoromethyl)imidazo[1,2-a]pyrimidin-3-yl]pyrazin-2-amine] |
| 5.52 to 7.00 | COc1cc(Nc2ccc(C(F)(F)F)cc2)nc(-c2c(C(F)(F)F)nc3ccccn23)c1 [Cpd 107, 4-methoxy-6-[2-(trifluoromethyl)imidazo[1,2-a]pyridin-3-yl]-N-[4-(trifluoromethyl)phenyl]pyridin-2-amine] |
| 7.00 to 8.00 | FC(F)Oc1ccc(Nc2cncc(-c3c(C(F)(F)F)nc4ncccn34)n2)cc1 [Cpd 109, N-[4-(difluoromethoxy)phenyl]-6-[2-(trifluoromethyl)imidazo[1,2-a]pyrimidin-3-yl]pyrazin-2-amine] |
| 7.00 to 8.00 | COc1cc(Nc2ccc(C(F)(F)F)cc2)nc(-c2c(C(=O)O)nc3ccccn23)c1 [Cpd 124, 3-(4-methoxy-6-{[4-(trifluoromethyl)phenyl]amino}pyridin-2-yl)imidazo[1,2-a]pyridine-2-carboxylic acid] |
| 7.00 to 8.00 | FC(F)(F)c1ccc(Nc2cncc(-c3c(C(F)(F)F)nc4ccccn34)n2)nc1 [Cpd 190, 6-[2-(trifluoromethyl)imidazo[1,2-a]pyridin-3-yl]-N-[5-(trifluoromethyl)pyridin-2-yl]pyrazin-2-amine] |
| 8.00 to 9.00 | N#Cc1cc(Nc2ccc(OC(F)F)cc2)nc(-c2c(C(F)(F)F)nc3ccccn23)c1 [Cpd 217, 2-{[4-(difluoromethoxy)phenyl]amino}-6-[2-(trifluoromethyl)imidazo[1,2-a]pyridin-3-yl]pyridine-4-carbonitrile] |
| 7.00 to 8.00 | OCc1cc(Nc2ccc(C(F)(F)F)cc2)nc(-c2c(C(F)(F)F)nc3ccccn23)c1 [Cpd 219, (2-[2-(trifluoromethyl)imidazo[1,2-a]pyridin-3-yl]-6-{[4-(trifluoromethyl)phenyl]amino}pyridin-4-yl)methanol] |
| 8.00 to 9.00 | FC(F)Oc1ccc(Nc2cncc(-c3c(C(F)(F)F)nc4n3CCCC4)n2)cc1 [Cpd 233, N-[4-(difluoromethoxy)phenyl]-6-[2-(trifluoromethyl)-5,6,7,8-tetrahydroimidazo[1,2-a]pyridin-3-yl]pyrazin-2-amine] |
| 5.52 to 7.00 | N#Cc1cc(Nc2ccc(OC(F)(F)F)cc2)nc(-c2c(C(F)(F)F)nc3n2CCCC3)c1 [Cpd 238, 2-{[4-(trifluoromethoxy)phenyl]amino}-6-[2-(trifluoromethyl)-5,6,7,8-tetrahydroimidazo[1,2-a]pyridin-3-yl]pyridine-4-carbonitrile] |
| 5.52 to 7.00 | CCc1cnc(C)n1-c1cncc(Nc2ccc(C(F)(F)F)cc2)n1 [Cpd 372, 6-(5-ethyl-2-methyl-1H-imidazol-1-yl)-N-[4-(trifluoromethyl)phenyl]pyrazin-2-amine] |

Same assay, conditions: read-out: ELISA EC50 value for Bmi-1 protein, Table 1, Bmi-1 sandwich ELISA

| Compound | pEC50 |
| --- | --- |
| Cc1nc2ccccc2n1-c1cc(C#N)cc(Nc2ccc(C(F)(F)F)cc2)n1 [Cpd 132, 2-(2-methyl-1H-benzimidazol-1-yl)-6-{[4-(trifluoromethyl)phenyl]amino}pyridine-4-carbonitrile] | 7.00 to 8.00 |
| NC(=O)c1cc(Nc2ccc(C(F)(F)F)cc2)nc(-c2c(C(F)(F)F)nc3ccccn23)c1 [Cpd 189, 2-[2-(trifluoromethyl)imidazo[1,2-a]pyridin-3-yl]-6-{[4-(trifluoromethyl)phenyl]amino}pyridine-4-carboxamide] | 7.00 to 8.00 |
| Cc1nc2ccccc2n1-c1cc(C(N)=O)cc(Nc2ccc(C(F)(F)F)cc2)n1 [Cpd 203, 2-(2-methyl-1H-benzimidazol-1-yl)-6-{[4-(trifluoromethyl)phenyl]amino}pyridine-4-carboxamide] | 5.52 to 7.00 |
| FC(F)(F)c1ccc(Nc2cncc(-c3c(C(F)(F)F)nc4n3CCCC4)n2)cc1 [Cpd 232, N-[4-(trifluoromethyl)phenyl]-6-[2-(trifluoromethyl)-5,6,7,8-tetrahydroimidazo[1,2-a]pyridin-3-yl]pyrazin-2-amine] | 8.00 to 9.00 |
| N#Cc1cc(Nc2ccc(C(F)(F)F)cc2)nc(-c2c(C(F)(F)F)nc3n2CCCC3)c1 [Cpd 236, 2-{[4-(trifluoromethyl)phenyl]amino}-6-[2-(trifluoromethyl)-5,6,7,8-tetrahydroimidazo[1,2-a]pyridin-3-yl]pyridine-4-carbonitrile] | 7.00 to 8.00 |
| COc1ccc(Nc2ccc(N)c(-c3c(C(F)(F)F)nc4ccccn34)n2)cc1 [Cpd 282, N^2-(4-methoxyphenyl)-6-[2-(trifluoromethyl)imidazo[1,2-a]pyridin-3-yl]pyridine-2,5-diamine] | 5.52 to 7.00 |
| Cc1nc(Cl)c(Cl)n1-c1cncc(Nc2ccc(C(F)(F)F)cc2)n1 [Cpd 297, 6-(4,5-dichloro-2-methyl-1H-imidazol-1-yl)-N-[4-(trifluoromethyl)phenyl]pyrazin-2-amine] | 5.52 to 7.00 |
